We go through 31 compounds from patent US9920010B2, “CXCR7 receptor modulators” (IDORSIA PHARMACEUTICALS LTD, priority 2013, dated 2018).

The target of this assay is T1, CXCR7 (Homo sapiens, UniProt P25106).
T1 construct: host or cells: CHO-K1 (PathHunter CHO-K1 CXCR7 b-arrestin cell line, stably transfected)
The assay can be described thus: PathHunter CHO-K1 CXCR7 b-arrestin recruitment assay (CXCR7 agonistic activity). The assay is classed as cell-based. The following applies: PathHunter CHO-K1 CXCR7 b-arrestin cell line. A digest of the protocol:
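Stable CHO-K1 line with C-terminally ProLink-tagged CXCR7 and β-arrestin 2–EA fusion; β-arrestin recruitment restores β-gal activity, read by chemiluminescence after 1 h RT detection. Cells seeded 24 h, starved in OPTIMEM 3–4 h, exposed to compounds 90 min at 37 °C in HBSS/HEPES/BSA. Geometric-mean EC50 from repeated measurements.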

In general, EC50 refers to the concentration at which the effect is half-maximal. Read a low EC50 as higher potency in that assay.

T1 sequence (P25106 whole entry): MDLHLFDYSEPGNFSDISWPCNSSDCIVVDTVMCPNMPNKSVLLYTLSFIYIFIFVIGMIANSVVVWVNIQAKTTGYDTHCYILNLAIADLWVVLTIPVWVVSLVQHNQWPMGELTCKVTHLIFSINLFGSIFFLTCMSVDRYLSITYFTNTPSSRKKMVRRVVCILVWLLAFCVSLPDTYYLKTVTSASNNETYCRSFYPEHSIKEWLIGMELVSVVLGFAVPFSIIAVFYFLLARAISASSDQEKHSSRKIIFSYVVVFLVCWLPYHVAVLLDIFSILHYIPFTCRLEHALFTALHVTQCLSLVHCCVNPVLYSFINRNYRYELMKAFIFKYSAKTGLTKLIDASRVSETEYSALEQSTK
T1 sequence (P32121 whole entry partner): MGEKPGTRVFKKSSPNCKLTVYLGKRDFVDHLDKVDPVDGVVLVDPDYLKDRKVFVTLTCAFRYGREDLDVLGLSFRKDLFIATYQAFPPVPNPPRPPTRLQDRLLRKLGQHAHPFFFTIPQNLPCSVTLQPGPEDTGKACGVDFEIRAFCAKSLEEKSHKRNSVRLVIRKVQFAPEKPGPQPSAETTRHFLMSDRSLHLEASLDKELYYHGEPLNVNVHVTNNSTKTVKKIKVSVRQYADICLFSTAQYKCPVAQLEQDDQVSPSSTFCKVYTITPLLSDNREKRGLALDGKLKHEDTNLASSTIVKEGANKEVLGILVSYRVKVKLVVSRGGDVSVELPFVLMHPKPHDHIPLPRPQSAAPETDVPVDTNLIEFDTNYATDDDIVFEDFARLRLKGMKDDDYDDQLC

Turning to `O=C1CC(CN(Cc2ccccc2C(F)(F)F)C(=O)CNc2cccc3c2CCN(CC2CC2)C3)=CC=N1` [Example 78, 2-(2-Cyclopropylmethyl-1,2,3,4-tetrahydro-isoquinolin-5-ylamino)-N-(2-oxo-2,3-dihydro-pyridin-4-ylmethyl)-N-(2-trifluoromethyl-benzyl)-acetamide], the EC50 came to 376 nM.
In the case of `CN1CCCC1CCN(CCc1ccccc1)C(=O)CNc1cccc2c1CCN(CC1CC1)C2` (racemic) [Example 49, rac-2-(2-Cyclopropylmethyl-1,2,3,4-tetrahydro-isoquinolin-5-ylamino)-N-[2-(1-methyl-pyrrolidin-2-yl)-ethyl]-N-phenethyl-acetamide], the EC50 is 16 nM.
The value for `COCCN1CCc2c(cccc2NCC(=O)N(CCN2CCC(F)(F)CC2)Cc2ncccc2Cl)C1` [Example 305, N-(3-Chloro-pyridin-2-ylmethyl)-N-[2-(4,4-difluoro-piperidin-1-yl)-ethyl]-2-[2-(2-methoxy-ethyl)-1,2,3,4-tetrahydro-isoquinolin-5-ylamino]-acetamide] was 230 nM.
For the compound `COCCN1CCc2c(CCC(=O)N(CCN(C)C)Cc3ccccc3C(F)(F)F)cccc2C1` [Example 335, N-(2-Dimethylamino-ethyl)-3-[2-(2-methoxy-ethyl)-1,2,3,4-tetrahydro-isoquinolin-5-yl]-N-(2-trifluoromethyl-benzyl)-propionamide], the EC50 is 23 nM.
With `CN(C)CCN(Cc1ccccc1)C(=O)Cc1cccc2c1CCN(CC1CC1)C2` [Example 1, N-Benzyl-2-(2-cyclopropylmethyl-1,2,3,4-tetrahydro-isoquinolin-5-yl)-N-(2-dimethylamino-ethyl)-acetamide], the EC50 worked out at 79 nM. Against the preceding compound, the EC50 is about 3.4-fold higher.
“2-(2-Cyclopropylmethyl-1,2,3,4-tetrahydro-isoquinolin-5-ylamino)-N-(2-dimethylamino-ethyl)-N-pyridin-3-ylmethyl-acetamide [Example 263]” registered an EC50 of 127 nM.
The value for `COCCN1CCc2c(CCC(=O)N(CCN3CCC(F)(F)CC3)Cc3ncccc3C(F)(F)F)cccc2C1` [Example 340, N-[2-(4,4-Difluoro-piperidin-1-yl)-ethyl]-3-[2-(2-methoxy-ethyl)-1,2,3,4-tetrahydro-isoquinolin-5-yl]-N-(3-trifluoromethyl-pyridin-2-ylmethyl)-propionamide] was 277 nM; that for `CN(C)CCN(Cc1ncccc1Cl)C(=O)/C=C/c1cccc2c1CCN(C(=O)[C@H]1C[C@H]1F)C2` (racemic) [Example 330, rac-(E)-N-(3-Chloro-pyridin-2-ylmethyl)-N-(2-dimethylamino-ethyl)-3-[2-((1R*,2R*)-2-fluoro-cyclopropanecarbonyl)-1,2,3,4-tetrahydro-isoquinolin-5-yl]-acrylamide] was 11 nM; that for `CCN1CCc2cccc(NCC(=O)N(CCN(C)C)Cc3ncccc3F)c2C1` [compound 528, N-(2-Dimethylamino-ethyl)-2-(2-ethyl-1,2,3,4-tetrahydro-isoquinolin-8-ylamino)-N-(3-fluoro-pyridin-2-ylmethyl)-acetamide] was 42 nM.
In turn, `CCN1CCc2cccc(NCC(=O)N(CCN(C)C)Cc3cnc(N(C)C)nc3)c2C1` [compound 534] gave an EC50 of 395 nM. This EC50 lies about 9.4-fold higher than the previous one.
In turn, `CCN1CCc2cccc(NCC(=O)N(Cc3ccccc3C(F)(F)F)C3CCOCC3)c2C1` [compound 519] displayed a concentration giving a half-maximal response (EC50) of 250 nM. This EC50 lies about 1.6-fold lower than the previous one.
On to `CN1CCCC1CCN(CCCc1ccccc1)C(=O)CNc1cccc2c1CCN(CC1CC1)C2` (racemic) [Example 52, rac-2-(2-Cyclopropylmethyl-1,2,3,4-tetrahydro-isoquinolin-5-ylamino)-N-[2-(1-methyl-pyrrolidin-2-yl)-ethyl]-N-(3-phenyl-propyl)-acetamide], for which the EC50 worked out at 17 nM.
In turn, `CN(C)CCN(Cc1cncc(Cl)c1)C(=O)CNc1cccc2c1CCN(CC1CC1)C2` [Example 262, N-(5-Chloro-pyridin-3-ylmethyl)-2-(2-cyclopropylmethyl-1,2,3,4-tetrahydro-isoquinolin-5-ylamino)-N-(2-dimethylamino-ethyl)-acetamide] came in with an EC50 of 62 nM. Against the preceding compound, the EC50 is about 3.6-fold higher.
`COCCN1CCc2c(/C=C/C(=O)N(CCN(C)C(=O)OC(C)(C)C)Cc3ccccc3C(F)(F)F)cccc2C1` [Example 319, {2-[{(E)-3-[2-(2-Methoxy-ethyl)-1,2,3,4-tetrahydro-isoquinolin-5-yl]-acryloyl}-(2-trifluoromethyl-benzyl)-amino]-ethyl}-methyl-carbamic acid tert-butyl ester] showed an EC50 of 443 nM. This EC50 is about 7.1-fold higher than that of the compound before.
As for `COCCN1CCc2c(cccc2NCC(=O)N(CCN(C)C)Cc2ccccc2C(F)(F)F)C1` [Example 359, N-(2-(dimethylamino)ethyl)-2-((2-(2-methoxyethyl)-1,2,3,4-tetrahydroisoquinolin-5-yl)amino)-N-(2-(trifluoromethyl)benzyl)acetamide], the EC50 came to 9 nM.
As to `CN(C)CCN(Cc1ncccc1Cl)C(=O)CNc1cccc2c1CN(C1CCC1)CC2` [compound 455, N-(3-Chloro-pyridin-2-ylmethyl)-2-(2-cyclobutyl-1,2,3,4-tetrahydro-isoquinolin-8-ylamino)-N-(2-dimethylamino-ethyl)-acetamide], the EC50 came out at 10 nM.
`CN(C)CCN(Cc1ncccc1C(F)(F)F)C(=O)CNc1cccc2c1CCN(CC1CCC1)C2` [Example 368, 2-(2-Cyclobutylmethyl-1,2,3,4-tetrahydro-isoquinolin-5-ylamino)-N-(2-dimethylamino-ethyl)-N-(3-trifluoromethyl-pyridin-2-ylmethyl)-acetamide]: a half-maximal response (EC50) required 3 nM.
As for `C#CCN1CCc2c(cccc2NCC(=O)N(CCN(C)C)Cc2ccccc2C(F)(F)F)C1` [Example 308, N-(2-Dimethylamino-ethyl)-2-(2-prop-2-ynyl-1,2,3,4-tetrahydro-isoquinolin-5-ylamino)-N-(2-trifluoromethyl-benzyl)-acetamide], the EC50 is 28 nM.
Compound `CNCCN(Cc1ncccc1C(F)(F)F)C(=O)CNc1cccc2c1CCN(C(=O)COC)C2` [compound 413, 2-[2-(2-Methoxy-acetyl)-1,2,3,4-tetrahydro-isoquinolin-5-ylamino]-N-(2-methylamino-ethyl)-N-(3-trifluoromethyl-pyridin-2-ylmethyl)-acetamide] yielded an EC50 of 8 nM.
Consider `C/C(=C\c1cccc2c1CCN(CC1CC1)C2)C(=O)N(CCN(C)C)Cc1ccccc1C(F)(F)F` [compound 154, (E)-3-(2-Cyclopropylmethyl-1,2,3,4-tetrahydro-isoquinolin-5-yl)-N-(2-dimethylamino-ethyl)-2-methyl-N-(2-trifluoromethyl-benzyl)-acrylamide], for which the concentration for a half-maximal effect (EC50) is 29 nM. Compared with the last compound, the EC50 is about 3.6-fold higher.
For the compound `CCOC(=O)N1CCc2c(cccc2NCC(=O)N(CCN(C)C)Cc2ccccc2)C1` [compound 117], the EC50 was 79 nM.
For the compound `O=C(CNc1cccc2c1CCN(CC1CC1)C2)N(Cc1ccccc1C(F)(F)F)CC1COCCO1` (stereo not shown) [Example 226, 2-(2-Cyclopropylmethyl-1,2,3,4-tetrahydro-isoquinolin-5-ylamino)-N-[1,4]dioxan-2-ylmethyl-N-(2-trifluoromethyl-benzyl)-acetamide], the EC50 was found to be 13 nM.
For the compound `CC1c2cccc(NCC(=O)N(CCN(C)C)Cc3ccccc3C(F)(F)F)c2CCN1CC1CC1` (racemic) [Example 211, rac-2-((2-(Cyclopropylmethyl)-1-methyl-1,2,3,4-tetrahydroisoquinolin-5-yl)amino)-N-(2-(dimethylamino)ethyl)-N-(2-(trifluoromethyl)benzyl)acetamide], a half-maximal effect (EC50) was put at 2 nM.
`CNCCN(Cc1ccccc1C(F)(F)F)C(=O)CNc1cccc2c1CCN(C(=O)OCC(C)(C)C)C2` [compound 402] yielded an EC50 of 198 nM.
Regarding `Cc1ccc2c(c1NCC(=O)N(CCN(C)C)Cc1ccccc1C(F)(F)F)CCN(CC1CC1)C2` [Example 290, 2-(2-Cyclopropylmethyl-6-methyl-1,2,3,4-tetrahydro-isoquinolin-5-ylamino)-N-(2-dimethylamino-ethyl)-N-(2-trifluoromethyl-benzyl)-acetamide], the EC50 was 5 nM.
Under `O=C(CNc1cccc2c1CCN(CC1CC1)C2)N(CCN1CCNCC1)Cc1ccccc1C(F)(F)F` [compound 438, 2-(2-Cyclopropylmethyl-1,2,3,4-tetrahydro-isoquinolin-5-ylamino)-N-(2-piperazin-1-yl-ethyl)-N-(2-trifluoromethyl-benzyl)-acetamide] stands 15 nM; under `CC(C)(C)OC(=O)N1CCC(N(Cc2ccccc2)C(=O)CNc2cccc3c2CCN(CC2CC2)C3)C1` (racemic) [Example 65, rac-3-{Benzyl-[2-(2-cyclopropylmethyl-1,2,3,4-tetrahydro-isoquinolin-5-ylamino)-acetyl]-amino}-pyrrolidine-1-carboxylic acid tert-butyl ester], 150 nM; under `CNCCN(Cc1ccccc1C(F)(F)F)C(=O)CNc1cccc2c1CCN(C(=O)OCCF)C2` [compound 400, 5-({[(2-Methylamino-ethyl)-(2-trifluoromethyl-benzyl)-carbamoyl]-methyl}-amino)-3,4-dihydro-1H-isoquinoline-2-carboxylic acid 2-fluoro-ethyl ester], 31 nM.
`CCNC(=O)N1CCc2c(cccc2NCC(=O)N(CCNC)Cc2ncccc2C(F)(F)F)C1` [compound 429, 5-({[(2-Methylamino-ethyl)-(3-trifluoromethyl-pyridin-2-ylmethyl)-carbamoyl]-methyl}-amino)-3,4-dihydro-1H-isoquinoline-2-carboxylic acid ethylamide]: a half-maximal effect (EC50) was put at 7 nM.
For the compound `CNCCN(Cc1ncccc1C(F)(F)F)C(=O)CNc1cccc2c1CCN(C(=O)OCCOC)C2` [compound 427], a half-maximal effect (EC50) was put at 106 nM.
Compound `CCN1CCc2cccc(NCC(=O)N(Cc3ccccc3)C3CCNCC3)c2C1` [compound 377] gave an EC50 of 276 nM.
